Measured values published in patent publication US20040167330A1, “Novel chelating agents and conjugates thereof, their synthesis and use as diagnois and therapeutic agents” (priority 2004, published 2004).

What was measured:
Format in all cases: physicochemical
[1] = Formation of ^90Y-yttrium complex, radiochemical yield by TLC/HPLC; conditions: for radiochemical yield: 25° C.
Procedure: Purified DO3A-P^BnNH2 was dissolved in demineralised water at a concentration of 9×10^−5 mol/l. 0.1 ml of this solution were transferred into a small reaction vial (PE). 0.1 ml ^90Y-yttrium chloride (YCl3) in 0.1 M HCl and 0.1 ml ammonium acetate buffer, pH 5.7, were added. The reaction solutions were mixed well. pH values were measured continuously while preparing the solution. 24 identical solutions were prepared accordingly and stored at 25° C. and 37° C. respectively.
Samples were taken after 15 min, 30 min, 45 min, 60 min, 90 min and 120 min and analyzed by thin layer chromatography using silica gel (POLYGRAM SIL G/UV254) or, preferably, paper (Whatman No. 1) as solid phase. TLC was run using either solvent I: 0.1 N ammonium acetate solution or solvent II: 3% sodium chloride solution as developing solution. In parallel, samples (20 μl) were analyzed by gel filtration using HPLC. The HPLC-system comprised a gamma detector (Berthold LB 506) and a UV/VIS spectrometer (Waters 486) installed in two flow through cells, respectively.
Temperature- and time-dependent studies have shown a very short reaction time for the complex formation of a ^90Y-Yttrium-DO3A-complex.
Furthermore, the effect of pH and ligand concentration on radiochemical yield was evaluated. Table 5 summarizes the results relating to the variation of pH between pH 2.0 and pH 8.9 while maintaining a constant ratio of DO3A-P^BnNH2 and Y of 3:1 and a reaction time of 60 min at 25° C. Accordingly, best labeling results are achieved at pH values of 4.9-8.0. Table 6 summarizes the results relating to the variation of the ligand concentration DO3A-P^BnNH2: Y between 1:1 up to 7:1 while maintaining a constant pH range (pH 5.2) and reaction time of 60 min at 25° C.

[2] = as above; conditions: reaction time 0 min; 25° C.; [Y] = 1,2 · 10^−3 mol/l; ratio of ligand: Y = 1:1; pH = 5.5
[3] = Relaxation measurements of gadolinium(III) complex solutions; conditions: gadolinium(III) complex prepared in solution from GdCl3.6H2O; approx. pH 7; at 10 MHz
Procedure: Solution was stirred for 1 h at room temperature and pH was set to approx. pH 7 by careful addition of solid KOH. Thus prepared solution as well as other solutions of different concentration which were prepared by a similar approach (all containing known amount of water and gadolinium(III)) were used for relaxation measurements. The solutions gave relaxivity 7.86 mmol^−1 s^−1 (at 10 MHz).
Solution of gadolinium(III) complex of compound 1 for relaxation measurements were prepared similarly to Example 51. The solutions gave relaxivity 7.54 mmol-1 s^−1 (at 10 MHz). Exchange half-life of coordinated water molecule 70 ns was determined (from temperature dependence of ^17O NMR parameters).

pH values at which best labeling results are achieved ([1]; ^90Y, ratio of DO3A-P^BnNH2 and Y of 3:1, reaction time of 60 min at 25° C., pH varied 2.0 to 8.9): 4.9-8.0
radiochemical yield ([1]; ratio of ligand:Y 1:1, [Y] = 1.2 · 10^−3 mol/l, pH = 5.2, reaction time 60 min): 94%
radiochemical yield ([1]; reaction time 15 min, [Y] = 1,2 · 10^−3 mol/l, ratio of ligand: Y = 1:1, pH = 5.5): 97%
radiochemical yield [2]: 88%
relaxivity [3]: 7.86 mmol⁻¹ s⁻¹
Structure (SMILES): Nc1ccc(CP(=O)(O)CN2CCN(CC(=O)O)CCN(CC(=O)O)CCN(CC(=O)O)CC2)cc1 [Compound 11]
